# “And” between values parts separate entries of the source, which are not always exact repeats. Equal values may be shown once.
# Assays:
# [1] = tested on: CTLL-2; test: CTLL-2 proliferation; assay type: cell-based; conditions: Table 4
# [2] = tested on: CT-26 colon tumors; test: Efficacy in CT-26 tumor-bearing Balb/c mice, Studies 1-3 (tumor growth inhibition, survival); assay type: in vivo; conditions: for median survival time: Compound A 6 mg/kg QWx3, anti-PD-1 antibody 10 mg/kg BIWx3, or both
# Excerpt: Studies of Compound A as monotherapy and in combination with an anti-PD-1 antibody were undertaken in Balb/c female mice. […] Balb/c female mice, 7-8 weeks of age, with an average weight of 18 to 22 g were purchased from Taconic Biosciences by HD Biosciences for study 3. Cryogenically preserved vials of CT-26 colon cancer cells were purchased from American Tissue Type Collection (ATCC, Manassas, Va.). Cells were thawed and cultured according to the manufacturer's protocol. On the day of tumor cell inoculation, cells were washed in serum-free media, counted, and resuspended in cold serum-free media at a concentration of 250,000 (studies 1 and 2) or 300,000 (study 3) viable cells per 0.1 mL. The CT-26 cells (0.1 mL) were injected subcutaneously into the flanks of individual mice and tumors were allowed to grow.
# For studies 1 and 2 in which a combination of Compound A and an anti-PD-1 antibody were used, the antibody used was anti-mouse PD-1 (BioXcell; RMP1-14) and the control antibody was IgG1 isotype antibody (BioXcell; catalog #BP0089, lot #2A3). For study 3 in which an anti-PD-1 antibody was used, the antibody used was anti-mouse PD-1 (BioXcell; catalog #BP0146, RMP1-14, lot #695318A1) and the control antibody was IgG1 isotype antibody (BioXcell; catalog #BP0089, lot #2A3).
# Lyophilized Compound A was reconstituted into 10 mg/mL stock with 0.1 M acetic acid. It was then further diluted into working concentration with 1× phosphate buffered saline (PBS). The compound was reconstituted and diluted within an hour of dosing of animals and kept on ice until dosing. The lyophilized compound was stored at −80° C. before use. Vehicle was stored at 4° C.
# Three separate efficacy studies were performed using CT-26 tumor-bearing Balb/c mice. The design for study 1, which evaluated Compound A for dose-dependent efficacy as a single agent, is outlined in Table 19. The designs for studies 2 and 3, which evaluated the efficacy of Compound A in combination with an anti-PD-1 antibody, are outlined in Table 20 and Table 21, respectively. The route of administration for Compound A was intravenous (IV). IV dosing in the mice was done via the tail vein. The antibody was administered intraperitoneally (IP). All agents were administered based on the individual body weight of each animal obtained immediately prior to each dosing. Details on the dosing regimen are described below.
# In Study 1, CT-26 tumor-bearing mice were treated with vehicle IV once a week for a total of 3 doses (QWx3) or Compound A at 0.3, 1, or 3 mg/kg IV, either once a week for a total of three doses (QWx3), or once every 2 weeks for a total of 2 doses (Q2Wx2), starting on Day 4 following tumor cell inoculation when the average tumor volume was ˜80 mm^3.
# In Study 2, CT-26 tumor-bearing mice were treated on Day 5 following tumor cell inoculation when the average tumor volume was ˜80 mm^3. Dosing was with vehicle IV QWx3+ IgG isotype control IP or Compound A at 3 or 6 mg/kg IV, on a QWx3 dosing schedule, or anti-PD-1 antibody at 10 mg/kg IP, or the combination of Compound A at 6 mg/kg IV QWx3+ anti-PD-1 antibody at 10 mg/kg IP. The IP dosing of the antibody in all cases was twice a week for 3 weeks with a total of 6 doses (BIWx3).
# In Study 3, CT-26 tumor-bearing mice were treated on Day 7 following tumor cell inoculation when the average tumor volume was ˜70 mm3. Dosing was with vehicle IV QWx3+ IgG isotype control IP BIWx3; or Compound A at 1, 3, 6, or 9 mg/kg IV on a QWx3 dosing schedule, or anti-PD-1 antibody at 10 mg/kg IP BIWx3; or the combination of Compound A at 1, 3, or 6 mg/kg IV QWx3+ anti-PD-1 antibody at 10 mg/kg IP BIWx3.
# Animals were observed daily for clinical signs.
# Tumor growth was monitored using digital caliper measurements every 3 to 4 days until the end of the study. Tumor volume was calculated as Width^2×Length/2, where width is the smallest dimension and length is the largest. Raw tumor volume data are presented in the study reports. […]
# [3] = tested on: pSTAT5 and proliferation in CD8+ T, NK and Treg cells; test: Pharmacodynamics in peripheral blood compartment (pSTAT5, Ki-67, cell counts), Example 5; assay type: in vivo, C57BL/6 mice; conditions: mice
# Excerpt: Terminal blood samples were collected via cardiac puncture at the points indicated. […] Plasma and blood cells (in both studies) and tumors in study E3826-U1803 were collected for PK and PD analyses.
# STAT5 phosphorylation and induction of cell proliferation (the early molecular marker Ki-67 and cell counts) was used as pharmacodynamics readouts to assess the pharmacological profile of P65_30kD relative to its pharmacokinetics.
substance,measurement,setting,value
P65_30kD: SEQ ID NO: 25: IL-2 (SEQ ID NO: 4) with P65 replaced by AzK click-conjugated to methoxy linear 30 kDa PEG [Compound P65_30kD],"EC50, CTLL-2 proliferation",[1],"677,198 pg/mL"
same,median survival time,[2]; Study 2,27 days
same,animals surviving,"[2]; Study 3, Compound A 3 mg/kg, anti-PD-1 antibody 10 mg/kg, or both, day printed as 'Compound A days'",0 of 14 animals
same,median survival time,[2]; Study 3,35 days
same,animals surviving tumor-free,"[2]; Study 3, Compound A 6 mg/kg, anti-PD-1 antibody 10 mg/kg, or both, day printed as 'Compound A days'",0 of 14 animals
same,animals found dead following >15% body weight loss due to treatment,"[2]; Study 3, Compound A 9 mg/kg IV QWx3",2 of the 14 animals
same,% TGI (Relative to Vehicle Control),"[2]; Study #1, Compound A 0.3 mg/kg IV Q2Wx2, Day 15",20%
same,% TGI (Relative to Vehicle Control),"[2]; Study #1, Compound A 0.3 mg/kg IV QWx3, Day 15, listed as Compound A, 0.3 mg/kg",19%
same,% TGI (Relative to Vehicle Control),"[2]; Study #1, Compound A 1 mg/kg IV Q2Wx2, Day 15",27%
same,% TGI (Relative to Vehicle Control),"[2]; Study #1, Compound A 1 mg/kg IV QWx3, Day 15, listed as Compound A, 1 mg/kg",31%
same,% TGI (Relative to Vehicle Control),"[2]; Study #1, Compound A 3 mg/kg IV Q2Wx2, Day 15, listed as Compound A, 3 mg/kg",45%
same,% TGI (Relative to Vehicle Control),"[2]; Study #1, Compound A 3 mg/kg IV QWx3, Day 15, listed as Compound A, 3 mg/kg",52% and 51* %
same,% TGI (Relative to Vehicle Control),"[2]; Study #2, Compound A 3 mg/kg IV QWx3, listed as Compound A, 3 mg/kg",56.3% and 56%
same,% TGI (Relative to Vehicle Control),"[2]; Study #2, Compound A 6 mg/kg IV QWx3, listed as Compound A, 6 mg/kg",35.6% and 36* %
same,% TGI (Relative to Vehicle Control),"[2]; Study #3, Compound A 1 mg/kg IV QWx3, listed as Compound A, 1 mg/kg",29.8% and 30%
same,% TGI (Relative to Vehicle Control),"[2]; Study #3, Compound A 3 mg/kg IV QWx3, listed as Compound A, 3 mg/kg",58.8% and 59*** %
same,% TGI (Relative to Vehicle Control),"[2]; Study #3, Compound A 6 mg/kg IV QWx3, listed as Compound A, 6 mg/kg",86.2% and 86*** %
same,% TGI (Relative to Vehicle Control),"[2]; Study #3, Compound A 9 mg/kg IV QWx3, listed as Compound A, 9 mg/kg",84.8% and 85*** %
same,"proliferative responses of CD8+ effector T cells and NK cells (not Tregs), time window",[3],72 to 120 h
same,"persistent elevation of pSTAT5 in NK and CD8+ T cells, up to",[3]; single IV dose,up to 72 h
same,"persistent elevation of pSTAT5 in Tregs, up to",[3]; single IV dose,up to 24 h
